Measured values from PMC12072072 (International Journal of Molecular Sciences, 2025).
Like-named read-outs stand apart in the source and are kept apart here.

Legend:
A-549, PC-3, and SKOV-3 = assay: MTT assay, statements over the cancer cell lines together; assay type: cell-based, human; details: for IC50: MTT assay, A-549, PC-3 and SKOV-3 together, summary of Table 3, read-out: IC50 stated over the cancer cell lines together; for Selectivity Index stated over the tested cell lines together: IC50 of HDFs / IC50 of cell line, text summary of Table 4
Method: (§1) Each medium was supplemented with 10% fetal bovine serum, 1% L-glutamine, and 1% penicillin/streptomycin solution. The cell lines were incubated at 37 °C in a humidified atmosphere containing 5% CO2. Cells were counted using the Fuchs–Rosenthal counting chamber (hemocytometer) with modifications.
(§2) The final product of this reaction gives violet formazan crystals. The number of live cells is proportional to the amount of formazan and is represented by the violet dye reagent. The details of the experiments are given, e.g., in [54].

[1] = system: SKOV-3 (human ovarian carcinoma); assay: Cell Death Detection ELISA Plus, SKOV-3; assay type: cell-based; details: DNA fragmentation ELISA, sample vs negative control; tested at 0.1, 1.0 and 10.0 µg/mL, concentration of the value not stated
Method: (§3) The induction of apoptosis by tested compounds was determined with Cell Death Detection ELISA Plus from Roche Diagnostics GmbH (Mannheim, Germany).
(§4) The Cell Death Detection ELISA PLUS photometric enzyme immunoassay is used to quantitatively in vitro determination of cytoplasmic histone-associated DNA fragments (mono- and oligonucleosomes) after induced cell death. The kit contains a stop solution that allows users to terminate the substrate reaction and run the assay under defined conditions, making it suitable for high-throughput applications. This kit can be used for the relative quantification of histone-complexed DNA fragments (mono- and oligonucleosomes) out of the cytoplasm of cells after the induction of apoptosis or when released from necrotic cells. […] The antibodies used in the assay are not species-specific; therefore, the kit may be used to assay cells from various species. The details of the experiments are given in [74]. As an internal reference compound (cytostatic drug), camptothecin (topoisomerase I-inhibitor) was used in this study to induce apoptosis. The negative control is the sample without camptothecin treatment. […] Cells were counted using a Fuchs–Rosenthal counting chamber (hemocytometer) with modifications. The apoptotic index was calculated based on the enrichment of mono- and oligonucleosomes according to the following equation:apoptotic index = [{A405(sample) − A490(sample)}/{A405(negative control) − A490(negative control)}]

[2] = system: PC-3 (human prostate carcinoma); assay: Cell Death Detection ELISA Plus, PC-3; assay type: cell-based; details: DNA fragmentation ELISA, sample vs negative control; tested at 0.1, 1.0 and 10.0 µg/mL, concentration of the value not stated
Method: as §3, §4

[3] = system: PC-3 (human prostate carcinoma); assay: MTT assay, PC-3 cells; assay type: cell-based; details: for IC50: PC-3 cells, value (standard deviation), read-out: IC50 [μM] (±s) PC-3; for Selectivity Index (SI) PC-3: IC50 of HDFs / IC50 of PC-3
Method: as §1, §2
(§5) Statistical analyses for the cytotoxic activity were carried out using the nonparametric Kruskal–Wallis H test for unpaired data and ANOVA Friedman two-way analysis of variance test for paired data. Statistical significance was tested using Dunn’s post-hoc test. The IC50 values compared to the control IC50 were calculated using GraphPad Prism v. 10.1.1. software.

[4] = system: SKOV-3 (human ovarian carcinoma); assay: MTT assay, SKOV-3 cells; assay type: cell-based; details: for IC50: SKOV-3 cells, value (standard deviation), read-out: IC50 [μM] (±s) SKOV-3; for Selectivity Index (SI) SKOV-3: IC50 of HDFs / IC50 of SKOV-3
Method: as §1, §2, §5

[5] = system: A-549 (human lung carcinoma); assay: MTT assay, A-549 cells; assay type: cell-based; details: for IC50: Homo sapiens, A549, MTT assay, A-549 cells, value (standard deviation), read-out: IC50 [μM] (±s) A-549; for Selectivity Index (SI) A-549: IC50 of HDFs / IC50 of A-549
Method: as §1, §2, §5

[6] = system: CHO (Chinese hamster ovary); assay: MTT assay, CHO cells; assay type: cell-based; details: for IC50: Cricetulus griseus, CHO, MTT assay, CHO cells, value (standard deviation), read-out: IC50 [μM] (±s) CHO; for Selectivity Index (SI) CHO: IC50 of HDFs / IC50 of CHO
Method: as §1, §2, §5

[7] = system: HDFs (human dermal fibroblasts); assay: MTT assay, HDFs (normal cells); assay type: cell-based; details: Fibroblast, value (standard deviation), read-out: IC50 [μM] (±s) HDFs
Method: as §1, §2, §5

Solubility (remark) = assay type: physicochemical; details: remark among limitations, solvent not stated
[8] = Homo sapiens, SK-OV-3, MTT assay

Structure (SMILES) | IC50 (A-549, PC-3, and SKOV-3; Homo sapiens) | IC50 ([3]; Homo sapiens, PC-3, MTT assay) | IC50 [4, 8] | IC50 [5] | solubility (Solubility (remark)) | IC50 (A-549, PC-3, and SKOV-3) | Selectivity Index stated over the tested cell lines together (A-549, PC-3, and SKOV-3) | Apoptotic Index (AI) SKOV-3 [1] | Apoptotic Index (AI) PC-3 [2] | Selectivity Index (SI) PC-3 [3] | IC50 ([3]; MTT assay) | Selectivity Index (SI) SKOV-3 [4] | IC50 ([4]; MTT assay) | Selectivity Index (SI) A-549 [5] | IC50 [6] | Selectivity Index (SI) CHO [6] | IC50 [7]
CC(=O)O[C@H]1CC[C@@]2(C)C(CC[C@]3(C)C2C[C@H](O)[C@]24OC(=O)[C@@]5(CCC(C)(C)CC52)CC[C@]43C)C1(C)C (stereo partly drawn) [Compound 2, 3β-Acetoxy-12α-hydroxyolean-28-oic acid 28β→13β-olide] | 1 to 9 µM | 1.88 µM | 1.73 µM | 4.68 µM | – | – | exceeds 2 | 4.71 (0.11) | 4.76 (0.02) | 2.30 | 3.26 µM | 2.54 | 2.96 µM | 1.60 | 4.19 µM | 1.79 | 7.51 µM
CC(=O)O[C@H]1CC[C@@]2(C)C(CC[C@]3(C)C2CC(=O)[C@]24OC(=O)[C@@]5(CCC(C)(C)CC52)CC[C@@]34C)C1(C)C (stereo partly drawn) [Compound 4, 3β-Acetoxy-12-oxoolean-28-oic acid 28β→13β-olide] | 24 to 38 µM | 25.9 µM | 22.8 µM | 24.7 µM | – | – | ~2 | – | – | 1.62 | – | 1.84 | – | 1.70 | 52.7 µM | 0.79 | 42 µM
CC1(C)CC[C@@]23CC[C@@]4(C)[C@]5(C)CCC6C(C)(C)[C@@H](O)CC[C@]6(C)C5CC(=O)[C@]4(OC2=O)C3C1 (stereo partly drawn) [Compound 5, 3β-Hydroxy-12-oxoolean-28-oic acid 28β→13β-olide] | 24 to 38 µM | 31 µM | 37 µM | 38 µM | – | – | – | – | – | 1.67 | – | 1.40 | – | 1.36 | 38.2 µM | 1.35 | 51.8 µM
CC(=O)OC1CCC2(C)C(CCC3(C)C2CC(=NO)C24OC(=O)C5(CCC(C)(C)CC52)CCC34C)C1(C)C (stereo not drawn) [Compound 6, 3β-Acetoxy-12-hydroxyiminoolean-28-oic acid 28β→13β-olide] | 1 to 9 µM | 1.88 µM | 1.73 µM | 1.27 µM | – | – | exceeds 2 | 7.22 (0.06) | 7.28 (0.02) | 2.08 | – | 2.26 | – | 3.08 | – | 0.71 | 3.91 µM
CC1(C)CC[C@@]23CC[C@@]4(C)[C@]5(C)CCC6C(C)(C)[C@@H](O)CC[C@]6(C)C5C/C(=N\O)[C@]4(OC2=O)C3C1 (stereo partly drawn) [Compound 8, 3β-Hydroxy-12-hydroxyiminoolean-28-oic acid 28β→13β-olide] | > 100 µM | > 100 µM | > 100 µM | > 100 µM | poor solubility | – | – | – | – | – | – | – | – | – | > 100 µM | – | > 100 µM
C=C(C)C1CC[C@]2(C)C(C[C@H](Br)[C@]34OC(=O)[C@@]5(CCC(C)(C)CC53)CC[C@]42C)[C@@]1(C)CCC#N (stereo partly drawn) [Compound 12, 12α-Bromo-3-nitrilo-3,4-secoolean-4(23)-ene-28-oic acid 28β→13β-olide] | – | 6.27 µM | 6.22 µM | 7.88 µM | – | < 10 µM | – | 5.11 (0.01) | 5.43 (0.05) | 1.46 | – | 1.47 | – | 1.15 | 9.23 µM | 0.99 | 9.13 µM

The next lines start with results.

IC50 (A-549, PC-3, and SKOV-3; Homo sapiens) | IC50 ([3]; Homo sapiens, PC-3, MTT assay) | IC50 [4, 8] | IC50 [5] | solubility (Solubility (remark)) | IC50 (A-549, PC-3, and SKOV-3) | Structure (SMILES) | Selectivity Index stated over the tested cell lines together (A-549, PC-3, and SKOV-3) | Apoptotic Index (AI) SKOV-3 [1] | Apoptotic Index (AI) PC-3 [2] | Selectivity Index (SI) PC-3 [3] | IC50 ([3]; MTT assay) | Selectivity Index (SI) SKOV-3 [4] | IC50 ([4]; MTT assay) | Selectivity Index (SI) A-549 [5] | IC50 [6] | Selectivity Index (SI) CHO [6] | IC50 [7]
> 100 µM | > 100 µM | > 100 µM | 66.1 µM | poor solubility | – | CC1(C)CC[C@@]23CC[C@@]4(C)[C@]5(C)CCC6C(C)(C)C(=O)CC[C@]6(C)C5CC(=O)[C@]4(OC2=O)C3C1 (stereo partly drawn) [Compound 7, 3,12-Dioxoolean-28-oic acid 28β→13β-olide] | – | – | – | – | – | – | – | – | > 100 µM | – | > 100 µM
11 to 90 µM | 26.1 µM | 26.4 µM | 29.9 µM | – | – | CC1(C)CC[C@@]23CC[C@]4(C)[C@@](OC2=O)(C3C1)[C@@H](Br)CC1[C@@]2(C)CC[C@H](O)C(C)(C)C2CC[C@]14C (stereo partly drawn) [Compound 9, 12α-Bromo-3β-hydroxyolean-28-oic acid 28β→13β-olide] | ~2 | – | – | 1.95 | – | 1.93 | – | 1.71 | 42 µM | 1.21 | 51 µM
11 to 90 µM | 12.9 µM | 12.1 µM | 15.6 µM | – | 12 to 15 µM | CC1(C)CC[C@@]23CC[C@]4(C)[C@@](OC2=O)(C3C1)[C@@H](Br)CC1[C@@]2(C)CCC(=O)C(C)(C)C2CC[C@]14C (stereo partly drawn) [Compound 10, 12α-Bromo-3-oxoolean-28-oic acid 28β→13β-olide] | exceeds 2 | 5.05 (0.03) | 5.82 (0.04) | 3.02 | – | 3.24 | – | 2.51 | 21.4 µM | 1.83 | 39.1 µM
22 to 35 µM | 25.1 µM | 21.8 µM | 34.6 µM | – | – | CC1(C)CC[C@@]23CC[C@]4(C)[C@@](OC2=O)(C3C1)[C@@H](Br)CC1[C@@]2(C)CCC(=NO)C(C)(C)C2CC[C@]14C (stereo partly drawn) [Compound 11] | – | – | – | 1.15 | – | 1.33 | – | 0.83 | 55.4 µM | 0.52 | 28.9 µM
11 to 90 µM | 73.1 µM | 75.8 µM | 89.3 µM | poor solubility | – | CC1(C)CC[C@@]23CC[C@]4(C)[C@@](OC2=O)(C3C1)[C@@H](Br)CC1[C@@]2(C)CCC(=O)NC(C)(C)C2CC[C@]14C (stereo partly drawn) [Compound 13, 12α-bromo-3-oxo-3a-aza-A-homoolean-28-oic acid 28β→13β-olide] | – | – | – | 1.22 | – | 1.18 | – | 1.00 | > 100 µM | – | 89.4 µM
11 to 90 µM | 65.9 µM | 68.3 µM | 66.2 µM | – | – | CC1(C)CC[C@@]23CC[C@]4(C)[C@@](OC2=O)(C3C1)[C@@H](Br)CC1[C@@]2(C)CCC(=S)NC(C)(C)C2CC[C@]14C (stereo partly drawn) [Compound 14, 12α-bromo-3-thioxo-3a-aza-A-homoolean-28-oic acid 28β→13β-olide] | – | – | – | 1.28 | – | 1.23 | – | 1.27 | 87 µM | 0.97 | 84.1 µM
